From ChEMBL document CHEMBL4665684, “Antibacterial and NF-κB Inhibitory Lumazine Peptides, Aspochalasin, γ-Butyrolactone Derivatives, and Cyclic Peptides from a Hawaiian Aspergillus flavipes” (J Nat Prod, 2020)
Values after ≈ are worked out from the molar mass of the structure shown. Active and inactive are the calls of the source. The rule behind the calls is not given here. Numbered stars: 1 amine (or outer) side, 2 acyl side, 3 side chain; on linkers, the order of the positions; unused ones are H or OH. Square brackets hold non-standard residues; d marks the D form. Peptide text beside a SMILES is read from it. X2 = CC(C)=CCc1cc([C@H](O)[C@H](N[*:1])C(=O)[*:2])ccc1O; X1 = O=C([C@@H](N[*:1])[C@@H](O)c1ccc(O)cc1)[*:2]

Columns and labels:
[1] = system: A2780; experiment: Antiproliferative activity against human A2780 cells at 40 uM by SRB assay; assay type: functional, cell-based
[2] = system: Staphylococcus aureus; experiment: Antibacterial activity against Staphylococcus aureus ATCC 43300 in presence of disulfiram; assay type: functional
[3] = system: Staphylococcus aureus; experiment: Antibacterial activity against Staphylococcus aureus ATCC 43300 at 80 ug/ml; assay type: functional, organism-based; conditions: dose 80.0 µg/ml
[4] = Inhibition of TNFalpha-induced NFkappaB activation in HEK293 cells after 6 hrs by luciferase reporter gene assay; assay type: cell-based; conditions: Homo sapiens, HEK293, 6 h
[5] = system: Staphylococcus aureus; experiment: Antibacterial activity against Staphylococcus aureus ATCC 43300; assay type: functional

Compound	Activity [1]	also measured
CC1=C[C@H](/C=C(\C)C[C@@H](O)[C@@H](O)/C=C/C(=O)O)[C@]2(O)C(=O)N[C@@H](CC(C)C)[C@@H]2[C@@H]1C	inactive	
COC(=O)c1ccccc1NC(=O)[C@H](CC[S+](C)[O-])NC(=O)c1cnc2c(n1)c(=O)n(C)c(=O)n2C (some centres undefined)	inactive	
Cn1c(=O)c2nc(C(=O)N[C@@H](CO)C(=O)Nc3ccccc3C(=O)O)cnc2n(C)c1=O	inactive	
C[C@H](O)C(=O)[C@@H](C)C/C=C/[C@H]1[C@@H]2O[C@]2(C)[C@@H](C)[C@H]2[C@H](Cc3ccccc3)NC(=O)[C@]21O	inactive	
CC(C)[C@@H]1NC(=O)CNC(=O)[C@@H]2CCCN2C(=O)[C@H](Cc2c[nH]c3ccccc23)NC(=O)CNC(=O)[C@H]([C@@H](O)c2ccc(O)cc2)NC(=O)CNC1=O (cyclo(GVG[X1]GWP))	inactive	MIC [2]: 10 µg/mL; Activity [3]: inactive; IC50 [4]: 10.3 µM
Cn1c(=O)c2nc(C(=O)N[C@@H](CC[S+](C)[O-])C(=O)Nc3ccccc3C(=O)O)cnc2n(C)c1=O (some centres undefined)	inactive	
Cn1c(=O)c2nc(C(=O)N[C@@H](CCC(N)=O)C(=O)Nc3ccccc3C(=O)O)cnc2n(C)c1=O	inactive	
COC1=C(c2ccc(O)cc2)[C@@H](Cc2ccc(O)c(CC=C(C)C)c2)OC1=O	inactive	
[C-]#[N+]c1ccccc1NC(=O)[C@H](C)NC(=O)c1cnc2c(n1)c(=O)n(C)c(=O)n2C	inactive	
CC1=C[C@@H]2/C=C(\C)CCC(O)C(O)C(O)CC(=O)[C@]23C(=O)N[C@@H](CC(C)C)[C@@H]3[C@@H]1C (some centres undefined)	inactive	IC50 [4]: 3.1 µM
O=C(N[C@H](CO)[C@H](O)c1ccc([N+](=O)[O-])cc1)C(Cl)Cl [CHLORAMPHENICOL]		MIC [5]: 6.25 µg/mL (≈ 19.3 µM); MIC [2]: 2.5 µg/mL
C[C@H](NC(=O)c1cnc2c(n1)c(=O)n(C)c(=O)n2C)C(=O)Nc1ccccc1C(=O)O	inactive	
COC1=C(c2ccc(O)cc2)[C@@H](Cc2ccc(O)cc2)OC1=O	inactive	MIC [2]: 10 µg/mL; Activity [3]: inactive
CC(C)=CCc1cc([C@H](O)[C@@H]2NC(=O)CNC(=O)[C@H](C(C)C)NC(=O)CNC(=O)[C@@H]3CCCN3C(=O)[C@H](Cc3c[nH]c4ccccc34)NC(=O)CNC2=O)ccc1O (cyclo(GVG[X2]GWP))	inactive	MIC [2]: 10 µg/mL; Activity [3]: inactive
COC(=O)[C@]1(Cc2ccc(O)c(CC=C(C)C)c2)OC(=O)C(OC)=C1c1ccc(O)cc1	inactive	
